Measured values reported in patent publication US20250205193A1, “THERAPEUTIC COMPOUND AND SALTS” (Regents of the University of Minnesota, priority 2022, published 2025).
Like-named read-outs stand apart in the source and are kept apart here.

Assays:
67NR cells = test: Seahorse XFe96 respiratory experiments in permeabilized cells for pyruvate driven respiration (67NR); assay type: cell-based; details: read-out: inhibits pyruvate driven respiration, IC50
Experimental: 4T1 cells were seeded (20,000 cells/well) onto Seahorse XFe96 well plates and incubated overnight in growth media at 37° C. and 5% CO2 for adherence. […] For pyruvate driven respiration experiments, test compound was injected in port A, followed by rPFO (1 nM) in port B, followed by respective substrate cocktails (FCCP stimulated) in port C, and rotenone and antimycin A (0.5 μM) in port D. Final substrate concentrations for specific tests were as follows: (5 mM pyruvate, 0.5 mM malate, 2 mM dichloroacetate (DCA); 10 mM glutamate, 2 mM DCA; 2 μM rotenone).

Balb-C mice = test: Maximum tolerated dose study; assay type: in vivo; details: up to 40 mg/kg PO, q.d.
Experimental: A maximum tolerated dose study was conducted in Balb-C mice.

in vivo = details: mouse
Text: (§1) The pharmacokinetics and oral bioavailability of the compound of formula (I) were investigated in mouse following single intravenous and oral gavage.

mice = test: Single dose acute toxicity study; assay type: in vivo; details: single dose 40 mg/kg PO
Experimental: Additionally, a single dose acute toxicity study (40 mg/kg PO, q.d.) was carried out.

[1] = for T1/2: PO 5.00 mg/kg; for F: in vivo, po, 5 mg/kg
Text: as §1

With `CN(Cc1ccc(C(F)(F)F)cc1)c1ccc2cc(C(=O)O)c(=O)oc2c1` [MN-D7] the IC50 (67NR cells) was 17.8 ± 4.9 nM, the “body weight gains and grooming patterns” value (Balb-C mice) was “normal body weight gains and grooming patterns” and the tolerability (Balb-C mice) was “well tolerated”. For the same molecule, the AUC(0-inf) (in vivo; female, iv, 1 mg/kg) was 626 ng·h/mL, the AUC(0-t) (in vivo; female, iv, 1 mg/kg) was 552 ng·h/mL and the C0 (in vivo; female, iv, 1 mg/kg) was 226 ng/mL. For the same molecule, the Cmax (in vivo; female, iv, 1 mg/kg) was 200 ng/mL, the MRT inf (in vivo; female, iv, 1 mg/kg) was 4.34 h and the MRT last (in vivo; female, iv, 1 mg/kg) was 2.95 h. The Tmax (in vivo; female, iv, 1 mg/kg) was 0.08 h, the clearance (in vivo; female, iv, 1 mg/kg) was 26.6 mL/min/kg and the half-life (in vivo; female, iv, 1 mg/kg) was 3.15 h. The Vd (in vivo; female, iv, 1 mg/kg, Vss_obs Vss) was 6.92 L/kg, the Vd (in vivo; female, iv, 1 mg/kg, Vz_obs Vz) was 7.26 L/kg and the bioavailability (in vivo; female, po) was ~124%. It also gave a half-life (in vivo; female, po) of 4.41 h, an AUC(0-inf) (in vivo; female, po, 5 mg/kg) of 3480 ng·h/mL and an AUC(0-t) (in vivo; female, po, 5 mg/kg) of 3420 ng·h/mL. It also gave a Cmax (in vivo; female, po, 5 mg/kg) of 1450 ng/mL, an MRT inf (in vivo; female, po, 5 mg/kg) of 4.39 h and an MRT last (in vivo; female, po, 5 mg/kg) of 3.88 h. The Tmax (in vivo; female, po, 5 mg/kg) was 0.08 h, the half-life (in vivo; male, iv) was 3.65 h and the AUC(0-inf) (in vivo; male, iv, 1 mg/kg) was 486 ng·h/mL. For the same molecule, the AUC(0-t) (in vivo; male, iv, 1 mg/kg) was 413 ng·h/mL, the C0 (in vivo; male, iv, 1 mg/kg) was 185 ng/mL and the Cmax (in vivo; male, iv, 1 mg/kg) was 160 ng/mL. For the same molecule, the MRT inf (in vivo; male, iv, 1 mg/kg) was 4.97 h, the MRT last (in vivo; male, iv, 1 mg/kg) was 3.17 h and the Tmax (in vivo; male, iv, 1 mg/kg) was 0.08 h. The clearance (in vivo; male, iv, 1 mg/kg) was 34.3 mL/min/kg, the Vd (in vivo; male, iv, 1 mg/kg, Vss_obs Vss) was 10.2 L/kg and the Vd (in vivo; male, iv, 1 mg/kg, Vz_obs Vz) was 10.8 L/kg. For the same molecule, the bioavailability (in vivo; male, po) was ~125%, the half-life (in vivo; male, po) was 4.04 h and the AUC(0-inf) (in vivo; male, po, 5 mg/kg) was 2610 ng·h/mL. The AUC(0-t) (in vivo; male, po, 5 mg/kg) was 2580 ng·h/mL, the Cmax (in vivo; male, po, 5 mg/kg) was 890 ng/mL and the MRT inf (in vivo; male, po, 5 mg/kg) was 4.33 h. The MRT last (in vivo; male, po, 5 mg/kg) was 4.07 h, the Tmax (in vivo; male, po, 5 mg/kg) was 0.25 h and the “toxicity upon examination of internal organs” value (mice) was “did not cause any toxicity issues”. The “HL_Lambda T1/2” value ([1]; G1-Male, IV 1.0 mg/kg) was 3.65 h, the T1/2 ([1]; G2-Female) was 4.41 h and the T1/2 ([1]; G2-Male) was 4.04 h. It also gave an F ([1]; female, mouse) of 123.84%, an F ([1]; male, mouse) of 124.96% and a mean terminal half-life ([1]; mouse, female, IV dose) of 3.15 h.
